pIC50: −log10 of the molar value. Starred links: 1 amine or outer side, 2 acyl side, 3 side chain; linkers in the order of their positions; H or OH if unused. Residues, ends and D or L forms follow the SMILES beside them. Groups on a side chain read outwards from the residue. *: point of attachment. Pyrrolidide = C1CCN(*)C1; CO = O=C([*:1])[*:2]; Ms = CS(=O)(=O)*
Assays:
[1] = target: Integrin alpha-4/beta-1 (Homo sapiens, UniProt P05556+P13612); experiment: Alpha4-beta1 integrin binding affinity was assessed by measuring the reduction in binding of [125I]VCAM-Ig to a suspension of Jurkat cells (a human T cell line alpha-4-beta-1-beta-7); assay type: cell-based
Sequence of Integrin alpha-4/beta-1 (P05556 whole entry, one chain of several): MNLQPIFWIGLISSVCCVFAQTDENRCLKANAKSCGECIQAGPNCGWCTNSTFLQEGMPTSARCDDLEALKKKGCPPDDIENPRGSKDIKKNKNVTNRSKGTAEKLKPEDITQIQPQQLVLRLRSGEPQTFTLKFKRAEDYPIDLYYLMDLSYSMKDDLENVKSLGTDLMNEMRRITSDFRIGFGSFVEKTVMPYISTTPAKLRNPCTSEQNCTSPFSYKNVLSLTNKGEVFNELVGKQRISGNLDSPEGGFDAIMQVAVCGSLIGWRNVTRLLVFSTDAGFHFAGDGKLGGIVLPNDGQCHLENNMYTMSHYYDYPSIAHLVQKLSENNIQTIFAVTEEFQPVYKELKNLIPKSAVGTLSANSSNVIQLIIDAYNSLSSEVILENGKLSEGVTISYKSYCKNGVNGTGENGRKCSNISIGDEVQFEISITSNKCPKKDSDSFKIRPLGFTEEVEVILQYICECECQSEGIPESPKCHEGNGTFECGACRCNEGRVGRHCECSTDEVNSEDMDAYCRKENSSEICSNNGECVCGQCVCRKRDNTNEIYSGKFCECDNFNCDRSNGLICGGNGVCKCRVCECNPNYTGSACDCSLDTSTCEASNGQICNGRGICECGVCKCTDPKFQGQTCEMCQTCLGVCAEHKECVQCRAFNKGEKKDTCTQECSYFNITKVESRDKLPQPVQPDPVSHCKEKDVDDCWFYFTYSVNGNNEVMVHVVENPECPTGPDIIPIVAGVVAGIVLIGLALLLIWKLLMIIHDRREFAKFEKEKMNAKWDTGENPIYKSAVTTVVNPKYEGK

[2] = Tested for plasma half life period in rat (0-8 hr); assay type: ADME, organism-based
[3] = target: T1, Integrin alpha-4/beta-7 (Homo sapiens, UniProt P13612+P26010); experiment: Alpha4-beta7 integrin binding affinity was determined in duplicate by a radioligand binding assay using [125I]-VCAM-Ig and a suspension of RPMI-8866 cells (a human B cell line alpha-4-beta-1-beta-7+); assay type: cell-based
T1 sequence (P13612 whole entry): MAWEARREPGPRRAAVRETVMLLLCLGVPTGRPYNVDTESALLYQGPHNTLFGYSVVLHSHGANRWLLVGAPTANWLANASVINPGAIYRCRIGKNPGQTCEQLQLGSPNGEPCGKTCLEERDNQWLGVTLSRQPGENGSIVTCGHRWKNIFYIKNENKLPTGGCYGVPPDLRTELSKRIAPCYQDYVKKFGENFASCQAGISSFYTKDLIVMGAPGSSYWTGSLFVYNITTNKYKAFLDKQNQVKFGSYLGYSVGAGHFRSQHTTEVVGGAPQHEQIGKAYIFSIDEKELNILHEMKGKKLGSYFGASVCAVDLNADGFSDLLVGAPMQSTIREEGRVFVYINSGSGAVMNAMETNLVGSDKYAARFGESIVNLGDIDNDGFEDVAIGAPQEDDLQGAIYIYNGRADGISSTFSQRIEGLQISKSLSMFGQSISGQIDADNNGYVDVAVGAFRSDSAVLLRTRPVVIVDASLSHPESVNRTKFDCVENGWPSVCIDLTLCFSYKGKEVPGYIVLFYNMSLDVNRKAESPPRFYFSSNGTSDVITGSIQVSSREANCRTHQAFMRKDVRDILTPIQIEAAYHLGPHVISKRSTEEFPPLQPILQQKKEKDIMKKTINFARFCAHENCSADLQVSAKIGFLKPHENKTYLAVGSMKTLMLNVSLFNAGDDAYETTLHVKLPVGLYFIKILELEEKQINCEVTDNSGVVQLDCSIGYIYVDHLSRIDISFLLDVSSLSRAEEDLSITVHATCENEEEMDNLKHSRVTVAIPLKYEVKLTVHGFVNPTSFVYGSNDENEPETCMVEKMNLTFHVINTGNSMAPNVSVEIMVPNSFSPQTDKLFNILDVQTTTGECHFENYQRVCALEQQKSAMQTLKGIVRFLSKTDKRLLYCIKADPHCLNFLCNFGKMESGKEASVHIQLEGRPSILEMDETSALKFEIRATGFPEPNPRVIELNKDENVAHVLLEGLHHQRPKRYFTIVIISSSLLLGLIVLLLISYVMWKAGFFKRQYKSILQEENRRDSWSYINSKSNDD
T1 sequence (P26010 whole entry): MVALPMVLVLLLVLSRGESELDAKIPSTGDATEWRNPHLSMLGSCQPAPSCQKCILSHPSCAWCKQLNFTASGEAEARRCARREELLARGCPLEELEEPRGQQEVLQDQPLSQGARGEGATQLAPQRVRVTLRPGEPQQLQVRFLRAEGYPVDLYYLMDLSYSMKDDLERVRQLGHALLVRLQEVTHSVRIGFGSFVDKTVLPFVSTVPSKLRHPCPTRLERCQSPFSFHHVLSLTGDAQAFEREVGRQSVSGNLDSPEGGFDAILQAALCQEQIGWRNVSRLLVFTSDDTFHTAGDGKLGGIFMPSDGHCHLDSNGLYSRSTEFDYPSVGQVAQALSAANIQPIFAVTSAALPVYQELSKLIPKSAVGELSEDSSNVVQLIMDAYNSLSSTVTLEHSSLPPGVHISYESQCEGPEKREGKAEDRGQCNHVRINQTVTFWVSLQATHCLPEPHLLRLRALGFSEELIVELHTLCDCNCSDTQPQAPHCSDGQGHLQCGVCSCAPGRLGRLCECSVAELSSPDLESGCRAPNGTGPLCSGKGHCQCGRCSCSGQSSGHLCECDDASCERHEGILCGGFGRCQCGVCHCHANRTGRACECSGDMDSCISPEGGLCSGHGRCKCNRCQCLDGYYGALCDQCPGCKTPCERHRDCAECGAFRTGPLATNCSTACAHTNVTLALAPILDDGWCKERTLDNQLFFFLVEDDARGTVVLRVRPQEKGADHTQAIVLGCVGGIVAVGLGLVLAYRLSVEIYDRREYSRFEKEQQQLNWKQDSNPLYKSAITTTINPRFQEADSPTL

[4] = tested on: Rattus norvegicus; experiment: Plasma clearance value at intravenous dose of 1 mg/kg (2 mg/kg po (cassette dosing)) in Dawley rat; assay type: ADME, organism-based; parameters: dose 1 mg/kg; conditions: in vivo
[5] = target: T1, Integrin alpha-4/beta-7; experiment: Inhibition of [125I]VCAM-Ig binding to Alpha4-beta7 integrin of RPMI-8866 cells; assay type: cell-based
[6] = target: T1, Integrin alpha-4/beta-7; experiment: Inhibition of [125I]VCAM-Ig binding to Alpha4-beta7 integrin of RPMI-8866 cells at […] (inactive); assay type: cell-based
[7] = tested on: Rattus norvegicus; experiment: Plasma clearance value at intravenous dose of 1 mg/kg (2 mg/kg po (cassette dosing) in Dawley rat; assay type: ADME, organism-based; parameters: dose 1 mg/kg; conditions: in vivo

SMILES: O=C(O)[C@H](Cc1ccc(OC(=O)N2CCCC2)cc1)NC(=O)[C@@H]1CCCN1S(=O)(=O)c1ccccc1
- pIC50 [1]: 9.85
- half-life [2]: 12 min
- pIC50 [3]: 8.55
- Clp [4]: 176 mL/min/kg

SMILES: COc1ccc(C[C@H](NC(=O)[C@@H]2CCCN2S(=O)(=O)c2cc(Cl)cc(Cl)c2)C(=O)O)cc1
- pIC50 [1]: 9.43
- pIC50 [5]: 6.44

SMILES: O=C(O)[C@H](Cc1ccc(OCc2nnn[nH]2)cc1)NC(=O)[C@@H]1CCCN1S(=O)(=O)c1cc(Cl)cc(Cl)c1
- pIC50 [1]: 9.68
- pIC50 [3]: 6.78

SMILES: COCCOc1ccc(C[C@H](NC(=O)[C@@H]2CCCN2S(=O)(=O)c2cc(Cl)cc(Cl)c2)C(=O)O)cc1
- pIC50 [1]: 9.55
- pIC50 [3]: 7.20

SMILES: O=C(Oc1ccc(C[C@H](NC(=O)[C@@H]2CCCN2S(=O)(=O)c2cc(Cl)cc(Cl)c2)C(=O)O)cc1)C1CCCC1
- pIC50 [1]: 9.66
- pIC50 [3]: 7.23

SMILES: CC(C)(C)OC(=O)COc1cccc(C[C@H](NC(=O)[C@]2(C)CCCN2S(=O)(=O)c2cc(Cl)cc(Cl)c2)C(=O)O)c1
- pIC50 [1]: 9.39
- IC50 [6]: Not Active

SMILES: O=C(O)[C@H](Cc1ccc(O)cc1)NC(=O)[C@@H]1CCCN1S(=O)(=O)c1cc(Cl)cc(Cl)c1
- pIC50 [1]: 9.47
- pIC50 [5]: 6.09

SMILES: CCCCOc1ccc(C[C@H](NC(=O)[C@@H]2CCCN2S(=O)(=O)c2cc(Cl)cc(Cl)c2)C(=O)O)cc1
- pIC50 [1]: 8.95
- pIC50 [5]: 6.52

SMILES: CC(C)(C)Oc1cccc(C[C@H](NC(=O)[C@]2(C)CCCN2S(=O)(=O)c2cc(Cl)cc(Cl)c2)C(=O)O)c1
- pIC50 [1]: 8.75
- IC50 [6]: Not Active

SMILES: O=C(Oc1ccc(C[C@H](NC(=O)[C@@H]2CCCN2S(=O)(=O)c2cc(Cl)cc(Cl)c2)C(=O)O)cc1)c1ccccc1
- pIC50 [1]: 9.35
- pIC50 [3]: 7.36

SMILES: O=C(Oc1ccc(C[C@H](NC(=O)[C@@H]2CCCN2S(=O)(=O)c2cc(Cl)cc(Cl)c2)C(=O)O)cc1)c1ccc[nH]1
- pIC50 [1]: 9.59
- pIC50 [3]: 7.89

SMILES: CC(C)(C)Oc1ccc(C[C@H](NC(=O)[C@]2(C)CCCN2S(=O)(=O)c2cc(Cl)cc(Cl)c2)C(=O)O)cc1
- pIC50 [1]: 9.57
- pIC50 [5]: 6.19

SMILES: CC(C)(C)Oc1ccc(C[C@H](NC(=O)[C@@H]2CCCN2S(=O)(=O)c2cc(Cl)cc(Cl)c2)C(=O)O)cc1
- pIC50 [1]: 9.68
- pIC50 [5]: 6.94

SMILES: CC(C)N(C(=O)Oc1ccc(C[C@H](NC(=O)[C@]2(C)CCCN2S(=O)(=O)c2cc(Cl)cc(Cl)c2)C(=O)O)cc1)C(C)C
- pIC50 [1]: 9.66
- pIC50 [3]: 7.20

SMILES: C[C@@]1(C(=O)N[C@@H](Cc2cccc(OC(=O)N3CCCC3)c2)C(=O)O)CCCN1S(=O)(=O)c1cc(Cl)cc(Cl)c1
- pIC50 [1]: 8.44
- IC50 [6]: Not Active

SMILES: O=C(O)[C@H](Cc1ccc(OCc2ccccc2)cc1)NC(=O)[C@@H]1CCCN1S(=O)(=O)c1cc(Cl)cc(Cl)c1
- pIC50 [1]: 8.71
- pIC50 [3]: 6.07

SMILES: CCN(CC)C(=O)Oc1ccc(C[C@H](NC(=O)[C@]2(C)CCCN2S(=O)(=O)c2cc(Cl)cc(Cl)c2)C(=O)O)cc1
- pIC50 [1]: 9.72
- pIC50 [3]: 7.53

SMILES: C[C@@]1(C(=O)N[C@@H](Cc2ccc(OC(=O)N3CCOCC3)cc2)C(=O)O)CCCN1S(=O)(=O)c1cc(Cl)cc(Cl)c1
- pIC50 [1]: 9.89
- pIC50 [3]: 8.45
- Clp [4]: 50 mL/min/kg

SMILES: CN(C(=O)Oc1ccc(C[C@H](NC(=O)[C@]2(C)CCCN2S(=O)(=O)c2cc(Cl)cc(Cl)c2)C(=O)O)cc1)c1ccccc1
- pIC50 [1]: 9.60
- half-life [2]: 12 min
- pIC50 [3]: 7.91
- Clp [4]: 38 mL/min/kg

SMILES: CC(C)(C)OC(=O)COc1ccc(C[C@H](NC(=O)[C@@H]2CCCN2S(=O)(=O)c2cc(Cl)cc(Cl)c2)C(=O)O)cc1
- pIC50 [1]: 9.89
- pIC50 [3]: 6.68

SMILES: N#CCOc1ccc(C[C@H](NC(=O)[C@@H]2CCCN2S(=O)(=O)c2cc(Cl)cc(Cl)c2)C(=O)O)cc1
- pIC50 [1]: 9.59
- pIC50 [3]: 6.61

SMILES: O=C(O)[C@H](Cc1ccc(OC(=O)N2CCCC2)cc1)NC(=O)[C@@H]1CCCN1S(=O)(=O)c1cc(Cl)cc(Cl)c1
- pIC50 [1]: 9.89
- pIC50 [3]: 8.72

SMILES: C[C@@]1(C(=O)N[C@@H](Cc2ccc(OC(=O)N3CCCC3)cc2)C(=O)O)CCCN1S(=O)(=O)c1cc(Cl)cc(Cl)c1
- Clp [7]: 27 mL/min/kg
- pIC50 [1]: 9.77
- pIC50 [3]: 8.28

SMILES: CC(=O)COc1ccc(C[C@H](NC(=O)[C@@H]2CCCN2S(=O)(=O)c2cc(Cl)cc(Cl)c2)C(=O)O)cc1
- pIC50 [1]: 9.74
- pIC50 [3]: 7.29

SMILES: CS(=O)(=O)N1CCC[C@H]1C(=O)N[C@@H](Cc1ccc(OC(=O)N2CCCC2)cc1)C(=O)O (Ms-Pro-Tyr([CO-Pyrrolidide])-OH)
- pIC50 [1]: 9.30
- pIC50 [3]: 8.36

Reference: ChEMBL document CHEMBL1135368, “The discovery of small molecule carbamates as potent dual alpha(4)beta(1)/alpha(4)beta(7) integrin antagonists” (Bioorg Med Chem Lett, 2002)
